Test results published in ChEMBL document CHEMBL1130168, “Synthesis and evaluation of novel rhodacyanine dyes that exhibit antitumor activity” (J Med Chem, 1997).

Assays:
[1] = test system: LOX IMVI; experiment: Inhibitory concentration of compound against growth of human melanoma cells; type: functional, cell-based
[2] = Selectivity ratio is IC50 of Human colon carcinoma cells to that of Monkey normal kidney epithelial cells; type: functional, Epithelial cell
[3] = test system: Bladder carcinoma cell; experiment: Inhibitory concentration of compound against growth of human bladder carcinoma cells; type: functional, cell-based
[4] = test system: MCF7; experiment: Inhibitory concentration of compound against growth of human breast carcinoma cells; type: functional, cell-based
[5] = test system: MIA PaCa-2; experiment: Inhibitory concentration of compound against growth of human pancreatic carcinoma cells; type: functional, cell-based
[6] = test system: CX-1; experiment: Inhibitory concentration against growth of human colon carcinoma cells; type: functional, cell-based
[7] = test system: Mus musculus; experiment: 1.5 mg/kg of compound was administered IP on days 1,3,4,7,9 to LOX tumor bearing nude mice and the ratio of median survival time of treated to control was reported; type: functional
[8] = test system: CV-1; experiment: Inhibitory concentration against growth of monkey normal kidney epithelial cells as a measure of compound toxicity; type: functional, cell-based, Cercopithecidae; details: Chlorocebus aethiops
[9] = test system: LOX IMVI; experiment: Inhibitory concentration of compound against growth of human melanoma cell cells; type: functional, cell-based
[10] = test system: Mus musculus; experiment: 2 mg/kg of compound was administered IP on days 1,2,4,5,7,8,10 to LOX tumor bearing nude mice and the ratio of median survival time of treated to control was reported; type: functional; details: at 2 mg/kg
[11] = test system: Mus musculus; experiment: 4 mg/kg of compound was administered IP on days 1,2,4,5,7,8,10 to LOX tumor bearing nude mice and the ratio of median survival time of treated to control was reported; type: functional; details: at 4 mg/kg
[12] = test system: Mus musculus; experiment: 5 mg/kg of compound was administered IP on days 1,5,8,12 to LOX tumor bearing nude mice and the ratio of median survival time of treated to control was reported; type: functional
[13] = test system: Mus musculus; experiment: 5 mg/kg of compound was administered IP on days 1,3,7,10,16 to OVCARIII tumor bearing nude mice and the ratio of median survival time of treated to control was reported
[14] = test system: Mus musculus; experiment: 5 mg/kg of compound was administered IP on days 1,5,7 to CX-1 tumor bearing nude mice and the inhibition ratio was reported; type: functional
[15] = test system: Mus musculus; experiment: 5 mg/kg of compound was administered IP on days 1,3,7,10,16 to […] tumor bearing nude mice and the ratio of median survival time of treated to control was reported; type: functional; details: at 5 mg/kg
[16] = test system: Mus musculus; experiment: 5 mg/kg of compound was administered IP on days 1,5,8,12,15 to LOX tumor bearing nude mice and the ratio of median survival time of treated to control was reported; type: functional; details: at 5 mg/kg
[17] = Homo sapiens, Bladder carcinoma cell

SMILES	Ratio [2]	IC50 [6] [nM]	IC50 [8] [nM]	other results
CCN1/C(=C/C=c2\s/c(=C\c3sc4ccccc4[n+]3CC)n(-c3ccccc3)c2=O)Sc2ccccc21.[I-]	50	60	3000	IC50 [1]: 40 nM; IC50 [3, 17]: 400 nM; IC50 ([4]; Homo sapiens, MCF7): 40 nM; IC50 ([5]; Homo sapiens, MIA PaCa-2): 70 nM; T/C [7]: 256%
CC(=O)[O-].CCn1c(=O)/c(=C2\Sc3ccccc3N2C)s/c1=C\c1sc2ccccc2[n+]1CC	–	–	–	IC50 [3, 17]: 60 nM; IC50 [9]: 10 nM; IC50 ([4]; mcf7): 400 nM; IC50 ([5]; Homo sapiens, MIA PaCa-2): 60 nM; T/C [10]: 156%; T/C [11]: 163%
CC[n+]1c(/C=C2\SCC(=O)N2c2ccccc2)sc2ccccc21.[Br-]	20	2300	46100	–
CCN1/C(=C/C=c2\s/c(=C\c3sc4ccccc4[n+]3CC)n(C)c2=O)Oc2ccccc21.[I-]	57	30	1700	–
CC[n+]1c(/C=c2\s/c(=C\C=C\Nc3ccccc3)c(=O)n2-c2ccccc2)sc2ccccc21.[I-]	12	800	9800	–
CC[n+]1c(/C=c2\s/c(=C3/Sc4ccccc4N3C)c(=O)n2-c2ccccc2)sc2ccccc21.Cc1ccc(S(=O)(=O)[O-])cc1	220	10	2200	IC50 [1]: 40 nM; T/C [12]: 183%; IC50 [3, 17]: 40 nM; T/C [13]: >300%; IC50 ([4]; Homo sapiens, MCF7): 60 nM; IC50 ([5]; Homo sapiens, MIA PaCa-2): 40 nM; TI [14]: 42%
CCN1/C(=C/C=c2\s/c(=C\c3sc4ccc5ccccc5c4[n+]3CC)n(CC)c2=O)Sc2ccc3ccccc3c21.Cc1ccc(S(=O)(=O)[O-])cc1	217	30	6500	–
CCN1C(=O)CS/C1=C\c1sc2ccccc2[n+]1CC.[Br-]	30	1300	38900	–
CCN1/C(=C/C=c2/c(=O)s/c(=C/c3sc4ccccc4[n+]3CC)n2C)Oc2ccccc21.[I-]	49	70	3400	–
CCN1/C(=C/C=C/c2sc3ccccc3[n+]2CC)Sc2ccccc21.[I-]	20	60	1200	–
CCN1/C(=C/C=c2/c(=O)n(CC)/c(=C/c3sc4c5ccccc5ccc4[n+]3CC)n2CC)Sc2ccc3ccccc3c21.[I-]	8	100	800	–
CCn1c(=O)c(=C2CCCCC2)s/c1=C\c1sc2ccccc2[n+]1CC.Cc1ccc(S(=O)(=O)[O-])cc1	9	1800	16200	–
CCN1/C(=C/C=C(Cl)/C=C/c2sc3ccc4ccccc4c3[n+]2CC)Sc2ccc3ccccc3c21.Cc1ccc(S(=O)(=O)[O-])cc1	2	60	100	–
CCn1c(=O)/c(=C2\Sc3ccccc3N2C)s/c1=C\c1sc2ccccc2[n+]1CC.[I-]	346	50	17300	IC50 [1]: 20 nM; T/C [15]: 180%; IC50 ([3]; bladder carcinoma cell): 70 nM; IC50 ([4]; mcf7): 90 nM; IC50 ([5]; mia paca-2): 50 nM; T/C [16]: 168%
CCN1/C(=C/C=c2\s/c(=C\c3sc4ccccc4[n+]3CC)sc2=O)Oc2ccccc21.[I-]	<2	> 1700	3400	–
CCn1c(=O)/c(=C2\Sc3ccccc3N2C)n(CC)/c1=C\c1sc2ccccc2[n+]1CC.[I-]	20	1300	25400	–
CC[n+]1c(/C=c2\s/c(=C\Nc3ccccc3)c(=O)n2-c2ccccc2)sc2ccccc21.[Br-]	1	1500	1500	–
